This is an account of results in patent US12559496B2, “Imidazopyrimidines as modulators of IL-17” (Janssen Pharmaceutica NV, priority 2020, dated 2026).

Where only a bound is given, the exact number is not on record here.

Assay [1] concerns the target IL-17A(FLAG-Tagged): IL-17RA(His-Tagged) (Homo sapiens, UniProt Q16552, K93Q). Kind of assay: IL-17A(FLAG-Tagged): IL-17RA(His-Tagged) Binding Disruption Eu-HTRF Assay. Conditions: disruption of IL-17A/IL-17RA binding; simple average if tested more than once. An excerpt: IL-17A(FLAG-Tagged): IL-17RA(His-Tagged) Binding Disruption Eu-HTRF Assay
An antibody directed against the FLAG tag of IL-17A (SEQ ID NO: 1) is labeled with the HTRF donor chromophore (Europium-cryptate). IL-17A is present as a dimer that is “locked into” this quaternary structure due to the formation of loop-spanning […] disulfide bridges. The construct of IL-17RA used in the assay excludes the […] portion of the receptor and is fused to a C-terminal 10×His tag (SEQ ID NO:2). An antibody directed against the His tag of the IL-17RA chimera is labeled with the HTRF acceptor chromophore (“D2”). The fluorescence-resonance energy transfer (FRET) depends on the vicinity of the donor chromophore to the acceptor, and interruption of the binding between the IL-17A and IL-17RA causes the reduction/loss of FRET. Therefore, this assay allows to evaluate the compound effect on the binding IL-17A and IL-17RA by monitoring the fluorescence intensity of donor vs acceptor. The assay is run as described below.
40 nL of 2-fold serial diluted compound solution for total 22 dilution points is added into each well of a 1536-well, white, low-volume, non-binding plate (Greiner #782904), then 2 μL of FLAG tagged IL-17A at 2× final concentration (2.5 nM) in solution of PBS+0.01% Triton-X100 is added to each well. The assay plate is briefly centrifuged then incubated for 1 h at rt. A mixed solution is prepared containing 2×5 nM 10HIS×IL-17RA, 2×2.5 nM Eu-anti-FLAG (CISBIO), 2×5 nM D2-anti-HIS (CISBIO) in PBS+0.01% Triton-X100+200 mM Potassium Fluoride (Sigma 60238) and 2 μL of mix is added to each well of the assay plate. The plate is briefly centrifuged then incubated for 2 h at rt. The HTRF intensities at the wavelength of donor (620 nm) and acceptor (665 nm) are measured using BMG Pherastar. The ratio between intensities at two wavelengths is calculated and plotted against the compound concentration and the data is fitted to a one-site competition model to yield IC50 of the compound.

The subject of assay [2] is IL-17A-induced G-CSF production in human normal keratinocytes (NHK). Kind of assay: NHK Assay: IL-17A-induced G-CSF production in human normal keratinocytes. It is filed as cell-based. Conditions: 24 h, IL-17A 5 ng/mL, 5% FBS, simple average if tested more than once. Here is the method:
IL-17A acts directly on keratinocytes through binding to dimeric receptor IL-17RA/RC and drives the production of a number of inflammatory mediators known to be elevated in psoriasis lesional tissue. IL-17A small molecule inhibitors that block the IL-17A to interact with IL-17R would inhibit the IL-17A signaling in its targeted cells such as keratinocytes. The compound functional activity is evaluated for its impact on IL-17A-induced G-CSF production in human normal keratinocytes (NHK).
Adult normal human keratinocytes are cultured in keratinocyte growth medium (Lonza) in a flask till reaching ˜ 90% confluence, then cells are transferred to a 384-well plate at density of 3000-4000 cell/well. Recombinant human IL-17A (Gibco PHC9174) is pre-incubated with titrated compound or DMSO for 1 h at rt then added to the cell culture plate. The final concentration of IL-17A is 5 ng/mL and DMSO is 0.2%, in the culture containing 5% FBS. Cells are cultured/treated for 24 h at 37° C. Supernatants are collected and G-CSF production is measured through HTRF technology using Human G-CSF Kit (CisBio). G-CSF concentration was extrapolated from the standard curve and IC50 is determined using GraphPad Prism. Cell viability is also evaluated using CellTiter-Glo kit (Promega) and effect of compound on cell viability is compared to DMSO control.

UniProt Q16552, sequence (Q16552 with tags, fused parts or gaps K93Q): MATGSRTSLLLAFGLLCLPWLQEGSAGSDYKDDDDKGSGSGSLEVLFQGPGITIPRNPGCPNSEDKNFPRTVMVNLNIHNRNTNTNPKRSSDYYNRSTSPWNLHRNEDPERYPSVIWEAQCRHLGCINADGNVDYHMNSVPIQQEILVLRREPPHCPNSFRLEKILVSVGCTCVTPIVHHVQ

For `O=C(CC1CC(F)(F)C1)N[C@@H](c1ccn2cc([C@@H](NC(=O)[C@@H]3C[C@H]3C(F)(F)F)C3CCC(F)(F)CC3)nc2n1)C1CC1` (relative stereo) [Example 11, trans-(1S*,2S*)—N—((S)-(7-((R)-Cyclopropyl(2-(3,3-difluorocyclobutyl)acetamido)methyl)imidazo[1,2-a]pyrimidin-2-yl)(4,4-difluorocyclohexyl)methyl)-2-(trifluoromethyl)cyclopropane-1-carboxamide], the IC50 in assay [1] amounted to 660 nM; in assay [2] (Homo sapiens, Keratinocyte), 540 nM.
The like results for `O=C(CC1CC(F)(F)C1)N[C@@H](c1ccn2cc([C@@H](NC(=O)[C@H]3C[C@@H]3C(F)(F)F)C3CCC(F)(F)CC3)nc2n1)C1CC1` (relative stereo) [Example 12, trans-(1R*,2R*)—N—((S)-(7-((R)-Cyclopropyl(2-(3,3-difluorocyclobutyl)acetamido)methyl)imidazo[1,2-a]pyrimidin-2-yl)(4,4-difluorocyclohexyl)methyl)-2-(trifluoromethyl)cyclopropane-1-carboxamide] were, in that order, 6000 nM and above 20000 nM.
Consider `O=C(CCC(F)(F)F)NC(c1ccn2cc([C@@H](NC(=O)c3cnnn3CCC(F)(F)F)C3CCC(F)(F)CC3)nc2n1)C1CC1` (single isomer, unassigned) [Example 1, N—((S)-(7-((R*)-Cyclopropyl(4,4,4-trifluorobutanamido)methyl)imidazo[1,2-a]pyrimidin-2-yl)(4,4-difluorocyclohexyl)methyl)-1-(3,3,3-trifluoropropyl)-1H-1,2,3-triazole-5-carboxamide], for which the IC50 stood at 290 nM in assay [1] and 390 nM in assay [2].
In the case of `O=C(CCC(F)(F)F)NC(c1ccn2cc([C@@H](NC(=O)c3cnnn3CCC(F)(F)F)C3CCC(F)(F)CC3)nc2n1)C1CC1` (single isomer, unassigned) [Example 2, N—((S)-(7-((S*)-Cyclopropyl(4,4,4-trifluorobutanamido)methyl)imidazo[1,2-a]pyrimidin-2-yl)(4,4-difluorocyclohexyl)methyl)-1-(3,3,3-trifluoropropyl)-1H-1,2,3-triazole-5-carboxamide], the IC50 worked out at 3700 nM in assay [1] and 6200 nM in assay [2].
As for `CC(CC(=O)N[C@H](c1ccn2cc([C@@H](NC(=O)c3ccnc(CC(F)(F)F)c3)C3CCC(F)(F)CC3)nc2n1)C1CC1)C(F)(F)F` (single isomer, unassigned) [Example 3, N—((S)-(7-((S)-Cyclopropyl((R*)-4,4,4-trifluoro-3-methylbutanamido)methyl)imidazo[1,2-a]pyrimidin-2-yl)(4,4-difluorocyclohexyl)methyl)-2-(2,2,2-trifluoroethyl)isonicotinamide], the IC50 came to 3100 nM in assay [1] and 640 nM in assay [2] (Homo sapiens, Keratinocyte).
Take `CC(CC(=O)N[C@H](c1ccn2cc([C@@H](NC(=O)c3ccnc(CC(F)(F)F)c3)C3CCC(F)(F)CC3)nc2n1)C1CC1)C(F)(F)F` (single isomer, unassigned) [Example 4, N—((S)-(7-((S)-Cyclopropyl((S*)-4,4,4-trifluoro-3-methylbutanamido)methyl)imidazo[1,2-a]pyrimidin-2-yl)(4,4-difluorocyclohexyl)methyl)-2-(2,2,2-trifluoroethyl)isonicotinamide]: the results for the IC50 in assay [1] and in assay [2] were 1800 nM and 1200 nM, respectively.
`CC(CC(=O)N[C@@H](c1ccn2cc([C@@H](NC(=O)[C@@H]3C[C@H]3C(F)(F)F)C3CCC(F)(F)CC3)nc2n1)C1CC1)C(F)(F)F` (single isomer, unassigned) [Example 5]: the IC50 in assay [1] came to 700 nM; in assay [2] (Homo sapiens, Keratinocyte) it was 960 nM.
Consider `CC(CC(=O)N[C@@H](c1ccn2cc([C@@H](NC(=O)[C@H]3C[C@@H]3C(F)(F)F)C3CCC(F)(F)CC3)nc2n1)C1CC1)C(F)(F)F` (single isomer, unassigned) [Example 6], for which the IC50 in assay [1] was found to be 2700 nM; in assay [2] (Homo sapiens, Keratinocyte) it was 2100 nM.
Consider `CC(CC(=O)N[C@H](c1ccn2cc([C@@H](NC(=O)c3conc3CCC(F)(F)F)C3CCC(F)(F)CC3)nc2n1)C1CC1)C(F)(F)F` (single isomer, unassigned) [Example 7, N—((S)-(7-((S)-Cyclopropyl((S*)-4,4,4-trifluoro-3-methylbutanamido)methyl)imidazo[1,2-a]pyrimidin-2-yl)(4,4-difluorocyclohexyl)methyl)-3-(3,3,3-trifluoropropyl)isoxazole-4-carboxamide], for which the IC50 stood at 520 nM in assay [1] and 880 nM in assay [2].
For `CC(CC(=O)N[C@H](c1ccn2cc([C@@H](NC(=O)c3conc3CCC(F)(F)F)C3CCC(F)(F)CC3)nc2n1)C1CC1)C(F)(F)F` (single isomer, unassigned) [Example 8, N—((S)-(7-((S)-Cyclopropyl((R*)-4,4,4-trifluoro-3-methylbutanamido)methyl)imidazo[1,2-a]pyrimidin-2-yl)(4,4-difluorocyclohexyl)methyl)-3-(3,3,3-trifluoropropyl)isoxazole-4-carboxamide] the same measures were 1100 nM and 6000 nM.
Turning to `CC(CC(=O)N[C@H](c1ccn2cc([C@@H](NC(=O)c3conc3C3CC3)C3CCC(F)(F)CC3)nc2n1)C1CC1)C(F)(F)F` (single isomer, unassigned) [Example 9, 3-Cyclopropyl-N—((S)-(7-((S)-cyclopropyl((S*)-4,4,4-trifluoro-3-methylbutanamido)methyl)imidazo[1,2-a]pyrimidin-2-yl)(4,4-difluorocyclohexyl)methyl)isoxazole-4-carboxamide], the IC50 was found to be 1800 nM in assay [1] and 610 nM in assay [2].
The like results for `CC(CC(=O)N[C@H](c1ccn2cc([C@@H](NC(=O)c3conc3C3CC3)C3CCC(F)(F)CC3)nc2n1)C1CC1)C(F)(F)F` (single isomer, unassigned) [Example 10, 3-Cyclopropyl-N—((S)-(7-((S)-cyclopropyl((R*)-4,4,4-trifluoro-3-methylbutanamido)methyl)imidazo[1,2-a]pyrimidin-2-yl)(4,4-difluorocyclohexyl)methyl)isoxazole-4-carboxamide] were, in that order, 4100 nM and 5800 nM.
For `CC(C)n1ncnc1C(=O)N[C@H](c1cn2ccc([C@H](NC(=O)CC(C)C(F)(F)F)C3CC3)nc2n1)C1CCC(F)(F)CC1` (single isomer, unassigned) [Example 17, N—((S)-(7-((R)-Cyclopropyl((S*)-4,4,4-trifluoro-3-methylbutanamido)methyl)imidazo[1,2-a]pyrimidin-2-yl)(4,4-difluorocyclohexyl)methyl)-1-isopropyl-1H-1,2,4-triazole-5-carboxamide], the IC50 in assay [1] is 220 nM; in assay [2] (Homo sapiens, Keratinocyte), 1100 nM.
For `CC(C)n1ncnc1C(=O)N[C@H](c1cn2ccc([C@H](NC(=O)CC(C)C(F)(F)F)C3CC3)nc2n1)C1CCC(F)(F)CC1` (single isomer, unassigned) [Example 18, N—((S)-(7-((R)-Cyclopropyl((R*)-4,4,4-trifluoro-3-methylbutanamido)methyl)imidazo[1,2-a]pyrimidin-2-yl)(4,4-difluorocyclohexyl)methyl)-1-isopropyl-1H-1,2,4-triazole-5-carboxamide], the IC50 was determined as 580 nM in assay [1] and 2000 nM in assay [2].

In general, IC50 refers to the concentration at which inhibition is half-maximal. The low end stands for inhibition by little substance, the high end for a need for much substance.
